Laboratory results published in PMC11085308, “Design, Synthesis and Biological Activity of Novel Methoxy- and Hydroxy-Substituted N-Benzimidazole-Derived Carboxamides” (Molecules, 2024).
Values after ≈ are worked out from the molar mass of the structure shown. “Also recorded” adds a separate entry of the source.

Experiments:
S. aureus ATCC 29213 = assay: Antibacterial activity in vitro, broth microdilution MIC; assay type: cell-based, Staphylococcus aureus; details: for MIC S. aureus ATCC 29213: broth microdilution, 16–24 h at 37 °C, unit inferred
Procedure: (§1) The in vitro antibacterial activity of the synthesized benzamides 7–12 and 31–37 was evaluated against a panel of eight different bacterial strains. The Gram-positive bacterial strains comprised S. aureus, S. pneumoniae and E. faecalis, and the panel of Gram-negative bacteria consisted of E. coli, K. pneumoniae, A. baumannii and P. aeruginosa.
(§2) The selected bacterial strains were Gram-negative Escherichia coli (ATCC 25922) and Gram-positive Staphylococcus aureus (ATCC 29213) and S. Pneumoniae (ATCC 49619). The Saccharomyces cerevisiae ATCC 7752 strain was tested as a eukaryotic model organism. Synthesized compounds were prepared as 10 mM DMSO solutions and tested in a final concentration range of 100–0.2 µM [39].
(§3) Broth microdilution testing was performed according to CLSI (Clinical Laboratory Standards Institute) guidelines. The MIC (minimal inhibitory concentration) value was defined as the last tested concentration of a compound at which there is no visible growth of bacteria. Inoculums for each microorganism were prepared using the direct colony suspension method, where broth solutions that achieved turbidity equivalent to 0.5 McFarland standards were additionally diluted 100× with cation-adjusted MH media (Becton Dickinson). All test plates were incubated for 16–24 h at 37 °C.

A. baumannii ATCC 17978 = assay: as above; assay type: cell-based; details: 16–24 h at 37 °C, unit inferred
Procedure: as §1, §2, §3

E. faecalis ATCC 29212 = assay: as above; assay type: cell-based; details: for MIC E. faecalis ATCC 29212: broth microdilution, 16–24 h at 37 °C, unit inferred; for Selectivity of antibacterial activity, in words: against the Gram-positive strain E. faecalis
Procedure: as §1, §2, §3

P. aeruginosa ATCC 27853 = assay: as above; assay type: cell-based; details: 16–24 h at 37 °C, unit inferred
Procedure: as §1, §2, §3

E. coli ATCC 25922 = assay: as above; assay type: cell-based, Escherichia coli; details: 16–24 h at 37 °C, unit inferred
Procedure: as §1, §2, §3

E. coli efflux del. = assay: microbe, parasite or virus in culture; assay type: cell-based, Escherichia coli; details: broth microdilution, 16–24 h at 37 °C; unit inferred
Procedure: as §1, §2, §3

H460 (lung carcinoma) = assay: Antiproliferative activity in vitro, MTT assay, 72 h; assay type: cell-based; details: Homo sapiens, NCI-H460, 72 h incubation
Procedure: (§4) The experiments were carried out on four human cell lines which are derived from three cancer types: H460 (lung carcinoma), HCT 116 (colorectal carcinoma), MCF-7 (human breast cancer) and the non-cancerous cell line HEK 293 (human embryonic kidney).
(§5) The results are compared with the known antiproliferative agents doxorubicin and etoposide. […] Therefore, it is not clear whether the observed antiproliferative activity is due to the biological activity of the compounds or to precipitation.
(§6) The experiments were performed on four human cell lines, including HCT 116 (colon carcinoma), H 460 (lung carcinoma), MCF-7 (breast carcinoma) and HEK 293 (human embryonic kidney cells), in line with previously published experimental procedures. Briefly, the cells were grown in DMEM medium with the addition of 10% fetal bovine serum (FBS), 2 mM of L-glutamine, 100 U/mL of penicillin and 100 µg/mL of streptomycin and cultured as monolayers at 37 °C in a humidified atmosphere with 5% CO2. Cells were seeded at 2 × 10^3 cells/well in standard 96-well microtiter plates and left to attach for 24 h. The next day, a test compound was added in five serial 10-fold dilutions. The rate of cell growth was evaluated after 72 h of incubation with MTT assays. […] Each test was performed in quadruplicate in at least two individual experiments.

[1] = test system: HCT 116 (colorectal carcinoma); assay: as above; assay type: cell-based; details: Homo sapiens, 72 h incubation, '-' with footnote a = did not show biological activity due to precipitation
Procedure: as §4, §5, §6

[2] = test system: MCF-7 (human breast cancer); assay: as above; assay type: cell-based; details: MCF7, 72 h incubation
Procedure: as §4, §5, §6

[3] = test system: HEK 293 (human embryonic kidney); assay: Antiproliferative activity in vitro, MTT assay, 72 h, non-cancerous cell line; assay type: cell-based; details: HEK293, 72 h incubation, '-' with footnote a = did not show biological activity due to precipitation
Procedure: as §4, §5, §6

[4] = Ferric reducing/antioxidant power (FRAP assay); set-up: FRAP: unit not given here; details: for FRAP: Fe2+ equivalents, triplicate; for FRAP ferric reducing/antioxidant power, in words: compared to the standard BHT
Procedure: (§7) The synthesized benzazole acrylonitrile derivatives were screened for their antioxidative potency by using in vitro assays, namely DPPH and ABTS as free radical scavenging assays and FRAP as a ferric reducing/antioxidant power assay.
The antioxidant activity of a substance is directly related to its reducing power.
The FRAP method was carried out according to previously described procedures with some modifications to make it compatible with an assay on a 96-well microplate. All results were expressed as Fe^2+ equivalents (Fe^2+ µmol). Ferrous sulphate (FeSO4 × 7H2O) was used to develop a standard curve of 20–2000 µmol/l for the FRAP test.

[5] = DPPH free radical scavenging assay; details: compared to the standard BHT
Text: as §7
The well-known antioxidant butylated hydroxytoluene (BHT) was used as a standard for comparing activity during testing. The DPPH assay is a standard commonly used test for the in vitro assessment of the antioxidant capacity of novel compounds by using their ability to scavenge the stable radical 1,1-diphenyl-picrylhydrazyl. […] Another test used to evaluate the antioxidative capacity of novel compounds was the ABTS test, by which their activity was evaluated by scavenging the stable radical 3-ethylbenzthiazoline-6-sulphonic acid.
Determination of the reducing activity of the stable radical 1,1-diphenyl-picrylhydrazyl (DPPH):
The reducing activity of the investigated systems was measured by the DPPH method according to previously described procedures with modifications to ensure their use on a 96-well microplate. Briefly, equal volumes of various concentrations of the tested molecules (dissolved in DMSO) were added to a solution of DPPH (final concentration of 50 µM in absolute ethanol). Ethanol and DMSO were used as control solutions in line with earlier reports. The radical scavenging activity was calculated using the following formula:[(A517 control − A517 compound)/A517 control] × 100.
The IC50 values were calculated from dose–response curves using nonlinear regression analysis with the GraphPad Prism 8 Ink. program. All measurements were carried out in triplicate.

| Structure (SMILES) | MIC S. aureus ATCC 29213 (S. aureus ATCC 29213) | MIC A. baumannii ATCC 17978 (A. baumannii ATCC 17978) | MIC E. faecalis ATCC 29212 (E. faecalis ATCC 29212) | MIC P. aeruginosa ATCC 27853 (P. aeruginosa ATCC 27853) | MIC E. coli ATCC 25922 (E. coli ATCC 25922) | MIC E. coli efflux del. (E. coli efflux del.) | IC50 (H460 (lung carcinoma)) | IC50 [1] | IC50 [2] | IC50 [3] | FRAP [4] | FRAP ferric reducing/antioxidant power, in words [4] | DPPH free radical scavenging activity, in words [5] | MIC (E. faecalis ATCC 29212; Enterococcus faecalis, ATCC29212, read-out: MIC E. faecalis) | Selectivity of antibacterial activity, in words (E. faecalis ATCC 29212) | MIC (S. aureus ATCC 29213; Staphylococcus aureus, ATCC29213, read-out: MIC S. aureus) | melting point |
| --- | --- | --- | --- | --- | --- | --- | --- | --- | --- | --- | --- | --- | --- | --- | --- | --- | --- |
| CC1(C)S[C@@H]2[C@H](NC(=O)[C@H](N)c3ccccc3)C(=O)N2[C@H]1C(=O)O [Ampicillin, ampicillin, reference compound] | 0.5 µM (≈ 0.175 µg/mL) | 32 µM (≈ 11.2 µg/mL) | 1 µM (≈ 0.349 µg/mL) | > 64 µM | – | – | – | – | – | – | – | – | – | – | – | – | – |
| CC[C@H]1OC(=O)[C@H](C)[C@@H](O[C@H]2C[C@@](C)(OC)[C@@H](O)[C@H](C)O2)[C@H](C)[C@@H](O[C@@H]2O[C@H](C)C[C@H](N(C)C)[C@H]2O)[C@](C)(O)C[C@@H](C)CN(C)[C@H](C)[C@@H](O)[C@]1(C)O [Azithromycin, azithromycin, reference compound] | 1 µM (≈ 0.749 µg/mL) | 8 µM (≈ 5.99 µg/mL) | 8 µM (≈ 5.99 µg/mL) | 32 µM (≈ 24 µg/mL) | 4 µM (≈ 3 µg/mL) | 0.5 µM (≈ 0.374 µg/mL) | – | – | – | – | – | – | – | – | – | – | – |
| CC(C)(O/N=C(\C(=O)N[C@@H]1C(=O)N2C(C(=O)[O-])=C(C[n+]3ccccc3)CS[C@H]12)c1csc(N)n1)C(=O)O [Ceftazidime, ceftazidime, reference compound] | 4 µM (≈ 2.19 µg/mL) | 4 µM (≈ 2.19 µg/mL) | > 64 µM | 2 µM (≈ 1.09 µg/mL) | – | – | – | – | – | – | – | – | – | – | – | – | – |
| O=C(O)c1cn(C2CC2)c2cc(N3CCNCC3)c(F)cc2c1=O [Ciprofloxacin, ciprofloxacin, reference compound] | 0.25 µM (≈ 0.0828 µg/mL) | – | 4 µM (≈ 1.33 µg/mL) | – | – | – | – | – | – | – | – | – | – | – | – | – | – |
| COc1c(O)cc(C(=O)Nc2nc3ccccc3[nH]2)cc1O [Compound 8, N-(1H-benzo[d]imidazol-2-yl)-3,5-dihydroxy-4-methoxybenzamide] | > 64 µM | > 64 µM | 8 µM (≈ 2.39 µg/mL) | > 64 µM | > 64 µM | > 64 µM | 91.8 ± 1 µM | > 100 µM | 52.9 ± 16 µM | 49.4 ± 3.3 µM | 2461.93 ± 21.42 | excellent in vitro antioxidant activity | significantly improved | 8 µM (≈ 2.39 µg/mL) | selective antibacterial activity | – | – |
| CC(C)Cn1c(NC(=O)c2cc(O)c(O)c(O)c2)nc2ccccc21 [Compound 33, 3,4,5-Trihydroxy-N-(1-isobutyl-1H-benzo[d]imidazol-2-yl)benzamide] | 32 µM (≈ 10.9 µg/mL) | > 64 µM | 64 µM (≈ 21.8 µg/mL) | > 64 µM | > 64 µM | 64 µM (≈ 21.8 µg/mL) | > 100 µM | 43.2 ± 18.6 µM | 90.8 ± 1.6 µM | 77.1 ± 7.9 µM | 4154.35 ± 1.26 | excellent in vitro antioxidant activity | significantly improved | – | – | 32 µM (≈ 10.9 µg/mL) | 291 to 293 °C |
| O=C(Nc1nc2ccccc2n1-c1ccccc1)c1cc(O)c(O)c(O)c1 [Compound 34, 3,4,5-Trihydroxy-N-(1-phenyl-1H-benzo[d]imidazol-2-yl)benzamide] | > 64 µM | > 64 µM | 32 µM (≈ 11.6 µg/mL) | > 64 µM | > 64 µM | > 64 µM | > 100 µM | > 100 µM | 49.4 ± 27.3 µM | 85.1 ± 8.8 µM | 6.83 ± 1.26 | very low | significantly improved; also recorded: exceptional activity | – | selective antibacterial activity | – | 278 to 281 °C |
| COc1cccc2c1C(=O)c1c(O)c3c(c(O)c1C2=O)C[C@@](O)(C(=O)CO)C[C@@H]3O[C@H]1C[C@H](N)[C@H](O)[C@H](C)O1 [Doxorubicin, doxorubicin, reference compound] | – | – | – | – | – | – | 0.04 ± 0.01 µM | 0.04 ± 0.01 µM | 0.009 ± 0.004 µM | 0.02 ± 0.01 µM | – | – | – | – | – | – | – |
| COc1cc([C@@H]2c3cc4c(cc3[C@@H](O[C@@H]3O[C@@H]5CO[C@@H](C)O[C@H]5[C@H](O)[C@H]3O)[C@H]3COC(=O)[C@H]23)OCO4)cc(OC)c1O [Etoposide, etoposide, reference compound] | – | – | – | – | – | – | 2.2 ± 0.4 µM | 2.2 ± 0.4 µM | 0.6 ± 0.1 µM | 0.65 ± 0.02 µM | – | – | – | – | – | – | – |
| CNC(C)C1CCC(N)C(OC2C(N)CC(N)C(OC3OCC(C)(O)C(NC)C3O)C2O)O1 (stereo not shown) [Gentamicin, gentamicin, reference compound] | 0.25 µM (≈ 0.119 µg/mL) | 4 µM (≈ 1.91 µg/mL) | 16 µM (≈ 7.64 µg/mL) | 2 µM (≈ 0.955 µg/mL) | 0.5 µM (≈ 0.239 µg/mL) | 1 µM (≈ 0.478 µg/mL) | – | – | – | – | – | – | – | – | – | – | – |
| C[C@@H](O)[C@H]1C(=O)N2C(C(=O)O)=C(S[C@@H]3CN[C@H](C(=O)N(C)C)C3)[C@H](C)[C@H]12 [Meropenem, meropenem, reference compound] | < 0.125 µM | 0.5 µM (≈ 0.192 µg/mL) | 8 µM (≈ 3.07 µg/mL) | 1 µM (≈ 0.383 µg/mL) | < 0.125 µM | < 0.125 µM | – | – | – | – | – | – | – | – | – | – | – |
| CN(C)[C@@H]1C(O)=C(C(N)=O)C(=O)[C@@]2(O)C(O)=C3C(=O)c4c(O)cccc4[C@@](C)(O)[C@H]3C[C@@H]12 [Tetracycline, tetracycline, reference compound] | – | – | – | – | – | 32 µM (≈ 14.2 µg/mL) | – | – | – | – | – | – | – | – | – | – | – |
| NC[C@H]1O[C@H](O[C@H]2[C@H](O)[C@@H](O[C@H]3O[C@H](CO)[C@@H](O)[C@H](N)[C@H]3O)[C@H](N)C[C@@H]2N)[C@H](N)C[C@@H]1O [Tobramycin, reference compound] | 0.25 µM (≈ 0.117 µg/mL) | 2 µM (≈ 0.935 µg/mL) | 8 µM (≈ 3.74 µg/mL) | 0.5 µM (≈ 0.234 µg/mL) | 1 µM (≈ 0.468 µg/mL) | 1 µM (≈ 0.468 µg/mL) | – | – | – | – | – | – | – | – | – | – | – |
